Measured values from paper PMC8151276, “An Integrated Approach toward NanoBRET Tracers for Analysis of GPCR Ligand Engagement” (Molecules, 2021).

Molecular target: T1, ADRA1D (Homo sapiens, UniProt P25100)
T1 construct: purchased Promega (in-house HiBiT-GPCR construct library, NanoBRET)
T1 sequence (P25100 1-572): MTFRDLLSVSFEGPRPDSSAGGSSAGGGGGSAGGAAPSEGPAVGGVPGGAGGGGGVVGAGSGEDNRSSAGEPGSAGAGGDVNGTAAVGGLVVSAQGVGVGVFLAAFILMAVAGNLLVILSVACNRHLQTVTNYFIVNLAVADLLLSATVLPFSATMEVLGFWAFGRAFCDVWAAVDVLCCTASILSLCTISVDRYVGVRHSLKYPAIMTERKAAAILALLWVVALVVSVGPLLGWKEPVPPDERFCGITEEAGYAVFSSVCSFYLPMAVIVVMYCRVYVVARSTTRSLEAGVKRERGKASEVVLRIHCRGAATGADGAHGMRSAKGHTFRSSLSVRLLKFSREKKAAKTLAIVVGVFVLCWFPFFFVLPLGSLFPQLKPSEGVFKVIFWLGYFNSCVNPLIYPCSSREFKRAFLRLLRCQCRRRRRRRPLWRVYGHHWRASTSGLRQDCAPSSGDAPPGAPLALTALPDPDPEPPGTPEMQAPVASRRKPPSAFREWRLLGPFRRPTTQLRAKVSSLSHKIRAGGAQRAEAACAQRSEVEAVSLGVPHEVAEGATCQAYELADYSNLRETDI
Experiment: NanoBRET screen HiBiT-ADRA1D in HEK293
Assay type: binding
Method: Each tracer candidate was screened across the entire library of HiBiT-GPCR constructs using NanoBRET as the detection modality. As depicted in Figure 4A, the specificity of interactions was evaluated through decrease in BRET due to competitive displacement of a bound tracer by excess parental compound. Each tracer was analyzed for binding to each HiBiT-GPCR fusion in the absence and in the presence of competing parental compound. Briefly, HEK293 cells were transfected with HiBiT-GPCR constructs diluted into promoterless DNA to reduce expression and maximize translocation to the cell surface. Each tracer candidate was then screened at concentrations of 1 μM and 0.1 μM across cells expressing these fusions. Cells were treated for 1.5 h with tracer either alone or in the presence of 20 μM competing parental compound (i.e., control). BRET was measured upon addition of purified LgBiT and subsequent complementation with HiBiT genetically fused to a GPCR. The specificity of interactions was assessed through a decrease in BRET signal due to competitive displacement of the bound tracer. To further gauge the robustness of these interactions, the fold response over the control (i.e., BRETtracer/BRETcontrol) was calculated. We chose a 1.5-fold response, which translates to ≥7-fold signal over noise as the minimal threshold required to score an interaction as positive.
HiBiT-GPCR DNA constructs were diluted in 10 mM Tris pH 8 to a final concentration of 0.01 μg/μL, arrayed in 96-well plates and stored at −20 °C. For transfection, HEK293 cells were suspended in Opti-MEM (without phenol red) supplemented with 2% fetal bovine serum (Seradigm) and 100 units/mL penicillin–streptomycin (Gibco) at a final concentration of 220,000 cells/mL and dispensed into white 96-well plates at 90 μL/well. Subsequent transfections and screens were carried using an Agilent Bravo Automated Liquid Handling Platform. First, the 96-well HiBiT DNA arrays were diluted 25-fold in Opti-MEM (without serum or phenol red) to a final concentration of 0.0004 μg/μL and 20 μL of the diluted DNAs were transferred into new 96-well plates. Next, promoterless carrier DNA (1 μg/μL) was diluted 25-fold (0.04 μg/μL) and then dispensed into the diluted arrays at 20 μL/well. Following brief mixing, Viafect transfection reagent (Promega) diluted 16-fold into Opti-MEM was dispensed into the plates at 40 μL/well. After mixing by pipetting, plates were incubated for 10 min on the pipetting station deck. The DNA-transfection reagent complexes were then added to plates containing cells. To facilitate the screen, 10 μL of DNA-transfection reagent complexes were added in duplicates to the top 4 and bottom 4 rows, resulting in two identical 48-well arrays per plate. Plates with transfected cells were incubated for 18–20 h at 37 °C/5% CO2. A screen of each tracer across the entire library using two different concentrations requires duplicate plates of transfected cells. Depending on the number of tracers being screened, transfections can be scaled up using the same ratios. The next day, for each tracer, four 20× screening solutions in tracer dilution buffer (Promega) were prepared: two duplicates at final concentration of 20 μM and two duplicates at a final concentration of 2 μM. […] The four resulting solutions were diluted 4-fold in Opti-MEM without serum or phenol red to generate 5× solutions (5 µM and 0.5 µM tracer +/− 100 μM competing compound). To screen the library, a BioTek MultiFlo FX liquid dispenser was used to dispense 22.5 µL of tracer solution to the top 4 rows and 22.5 µL tracer + competing compound solution to the 4 bottom rows. Plates were briefly mixed on an orbital shaker and incubated for 1.5 h at room temperature. […] Plates were briefly mixed on an orbital shaker and incubated for 15 min to allow complementation.

| Compound | NanoBRET Fold Response (ADRA1D, tracer 0.1μM) | NanoBRET Fold Response (ADRA1D, tracer 1μM) | also measured |
| --- | --- | --- | --- |
| Cc1nc2n(c(=O)c1CCN1CCC(c3noc4cc(F)ccc34)CC1)CCCC2OC(=O)NCCOCCOCCOCCOCCNC(=O)CCc1ccc2n1[B-](F)(F)[N+]1=C(c3ccc[nH]3)C=CC1=C2 (stereo not shown) [Risperidone-2-NB590] | 1.27 | 1.16 |  |
| CCOC(=O)c1cc(C#N)c(N2CCC(C(=O)NS(=O)(=O)Cc3ccccc3/C=C/C(=O)NCCNC(=O)CCc3ccc4n3[B-](F)(F)[N+]3=C(c5ccc[nH]5)C=CC3=C4)CC2)nc1C [AZD1283-1-NB590] |  |  | NanoBRET Fold Response (ADRA1D, 0.1μM): 1.02; NanoBRET Fold Response (ADRA1D, 1μM): 1.06 |
| Cc1cc2c(s1)Nc1ccccc1N=C2N1CCN(CCCNC(=O)CCOCCOCCOCCOCCNC(=O)CCc2ccc3n2[B-](F)(F)[N+]2=C(c4ccc[nH]4)C=CC2=C3)CC1 [Olanzapine-a-2-NB590] |  | 1.06 |  |
| COc1ccccc1N1CCN(CCCCN2C(=O)c3ccc(CNC(=O)CCOCCNC(=O)c4ccc(CNC(=O)CCc5ccc6n5[B-](F)(F)[N+]5=C(c7ccc[nH]7)C=CC5=C6)cc4)cc3C2=O)CC1 [NAN-190-3-NB590] |  | 1.16 |  |
| CC(C)N(CC[C@H](c1ccccc1)c1cc(CCNC(=O)CCOCCOCCOCCOCCNC(=O)CCc2ccc3n2[B-](F)(F)[N+]2=C(c4ccc[nH]4)C=CC2=C3)ccc1O)C(C)C [Tolterodine-2-NB590] | 0.95 | 1.00 |  |
| CN(C)CCC=C1c2ccccc2CCc2ccc(C(=O)NCCNC(=O)CCOCCOCCOCCOCCNC(=O)CCc3ccc4n3[B-](F)(F)[N+]3=C(c5ccc[nH]5)C=CC3=C4)cc21 [Amitriptyline-b-2-NB590] |  |  | NanoBRET Fold Response (tracer at 0.1μM, listed as amitriptyline-b-2-NB590): 1.05; NanoBRET Fold Response (tracer at 1μM, listed as amitriptyline-b-2-NB590): 1.07 |
| O=C(CCOCCOCCOCCOCCNC(=O)CCc1ccc2n1[B-](F)(F)[N+]1=C(c3ccc[nH]3)C=CC1=C2)NCCCN1CCN(C2=Nc3ccccc3Oc3ccc(Cl)cc32)CC1 [Loxapine-a-2-NB590] | 1.07 | 1.24 |  |
| CN(C)CCC=C1c2ccccc2CCc2ccc(C(=O)NCCNC(=O)CCOCCOCCOCCOCCNC(=O)CCc3ccc4n3[B-](F)(F)[N+]3=C(c5ccc[nH]5)C=CC3=C4)cc21 [Amitriptyline-a-2-NB590] |  |  | NanoBRET Fold Response (tracer at 0.1μM): 1.08; NanoBRET Fold Response (tracer at 1μM): 1.11 |
| O=C(CCc1ccc2n1[B-](F)(F)[N+]1=C(c3ccc[nH]3)C=CC1=C2)NCCOCCOCCNC(=O)OCCOCCN1CCN(C2=Nc3ccccc3Sc3ccccc32)CC1 [Quetiapine-a-2-NB590] | 1.13 | 1.06 |  |
| COc1ccccc1N1CCN(CCCCN2C(=O)c3ccc(CNC(=O)CCOCCOCCOCCOCCNC(=O)CCc4ccc5n4[B-](F)(F)[N+]4=C(c6ccc[nH]6)C=CC4=C5)cc3C2=O)CC1 [NAN-190-2-NB590] | 1.10 | 1.13 |  |
| COc1ccc2[nH]c(-c3ccc(CNC(=O)CCOCCOCCOCCOCCNC(=O)CCc4ccc5n4[B-](F)(F)[N+]4=C(c6ccc[nH]6)C=CC4=C5)cc3)c(CCNC(C)=O)c2n1 [AzomelatoninICO9-2-NB590] |  |  | NanoBRET Fold Response (0.1μM tracer): 0.81; NanoBRET Fold Response (1μM tracer): 0.96 |
| O=C(CCOCCOCCOCCOCCNC(=O)CCc1ccc2n1[B-](F)(F)[N+]1=C(c3ccc[nH]3)C=CC1=C2)NCCCN1CCN(C2=Nc3cc(Cl)ccc3Nc3ccccc32)CC1 [Clozapine-a-2-NB590] |  |  | NanoBRET Fold Response (ADRA1D, 0.1μM tracer): 1.21; NanoBRET Fold Response (ADRA1D, 1μM tracer): 1.08 |
| CCCn1c(=O)c2[nH]c(-c3ccc(OCC(=O)NCCNC(=O)CCOCCNC(=O)c4ccc(CNC(=O)CCc5ccc6n5[B-](F)(F)[N+]5=C(c7ccc[nH]7)C=CC5=C6)cc4)cc3)nc2n(CCC)c1=O [XAC-3-NB590] | 1.02 | 1.10 |  |
| O=C(CCc1ccc2n1[B-](F)(F)[N+]1=C(c3ccc[nH]3)C=CC1=C2)NCc1ccc(C(=O)NCCOCCOCCNCC(O)COc2cccc3ccccc23)cc1 (stereo not shown) [Propranolol-3-NB590] |  |  | NanoBRET Fold Response (ADRA1D, 0.1μM): 1.11; NanoBRET Fold Response (ADRA1D, 1μM): 1.09 |
| O=C(CCc1ccc2n1[B-](F)(F)[N+]1=C(c3ccc[nH]3)C=CC1=C2)NCc1ccc(C(=O)NCCOCCC(=O)N[C@@H]2CC[C@@]3(O)[C@H]4Cc5ccc(O)c6c5[C@@]3(CCN4CC3CC3)[C@H]2O6)cc1 [Naltrexone-3-NB590] | 1.36 | 1.31 |  |
| CN(CCC=C1c2ccccc2CCc2ccccc21)C(=O)CCOCCOCCOCCOCCNC(=O)CCc1ccc2n1[B-](F)(F)[N+]1=C(c3ccc[nH]3)C=CC1=C2 [Amitriptyline-e-2-NB590] |  |  | NanoBRET Fold Response (tracer at 1μM): 1.07 |
| N#CN=C(NCCCOc1cccc(CN2CCCCC2)c1)NCCNC(=O)CCOCCOCCOCCOCCNC(=O)CCc1ccc2n1[B-](F)(F)[N+]1=C(c3ccc[nH]3)C=CC1=C2 [Aminopotentidine-2-NB590] | 0.97 |  |  |
| COc1ccc2c(n1)c(CCNC(C)=O)cn2CCNC(=O)CCc1ccc2n1[B-](F)(F)[N+]1=C(c3ccc[nH]3)C=CC1=C2 [Azamelatonin-1-NB590] |  |  | NanoBRET Fold Response (0.1μM tracer): 1.04; NanoBRET Fold Response (1μM tracer): 0.92 |
| CC(C)N(CC[C@H](c1ccccc1)c1cc(CCNC(=O)c2ccc(CNC(=O)CCc3ccc4n3[B-](F)(F)[N+]3=C(c5ccc[nH]5)C=CC3=C4)cc2)ccc1O)C(C)C [Tolterodine-BZ-NB590] | 1.15 | 1.05 |  |
